Experimental data: PubChem BioAssay AID2060486 (Molecular Pharmacology Branch, DTP, NCI, 2025)
pIC50: −log10 of the molar value.

System: IGROV1 complex spheroids (HUVEC, MSC), viability % test/control
Test: Anticancer human tumor IGROV1 cell line growth inhibition [GQUAD];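 note: spheroids exposed to compounds for 7 days before readout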
Settings: for pIC50: curve of first compound; for viability, T/C: stronger effect = lower value
Excerpt: DNA G-quadruplex Stabilizer Agents in Combinations in Complex Spheroids
A high-throughput screen of multi-cell type tumor spheroids was designed to identify active combinations of DNA G-quadruplex stabilizer agents and targeted small molecules. Complex spheroids include a stromal component modeled by human endothelial cells (HUVEC) and fibroblasts modeled by human mesenchymal stem cells (MSCs). The concentration ranges selected for each drug and investigational agent were based upon clinically achievable concentrations if the clinical Cmax of the agent was known.
Compounds. The drugs and investigational agents: pidnarulex (CX-5461; NSC782164), APTO-253 (NSC789042), BRACO-19 (NSC847499), peposertib (NSC802822), ceralasertib (NSC780249), elimusertib (NSC800525), camonsertib (NSC841442), AZD-1390 (NSC803789), olaparib (NSC753686), talazoparib (NSC767125), ART-558 (NSC835418), sotorasib (NSC818433), MRTX-1133 (NSC836407), SN-38 (NSC673596), topotecan (NSC609699), etoposide (NSC141540), doxorubicin (NSC123127), gemcitabine (NSC613327), 5-fluorouracil (NSC19893), paclitaxel (NSC125973), vemurafenib (NSC761431), panobinostat (NSC761190), R-306465 (JNJ-16241199; NSC773264), adavosertib (NSC754352), TP-3654 (NSC805149), carboplatin (NSC241240), KSQ-4279 (NSC840948), and staurosporine (NSC755774) were obtained from the National Cancer Institute (NCI) Developmental Therapeutics Program Chemical Repository (34). The FDA-approved anticancer drug set is available from the NCI Developmental Therapeutics Program. […] The stock solutions were prepared in dimethyl sulfoxide (DMSO, Sigma-Aldrich, St. Louis, MO, cat. D2650) at 800-fold the tested concentration and stored at -70 degrees C prior to their use. All drugs and investigational agents were tested over a range starting from a high concentration at or near the clinical Cmax and decreasing in half-log increments. If the clinical Cmax for an agent had not been determined, the highest concentration tested was 10 microM.
2.3 Cell Culture. All cells were maintained in an incubator at 37 degrees C and 5% CO2 with 95% humidity. The PDC lines were cultured according to standard operating procedures established by the NCI PDMR. All PDCs were thawed and cultured in Matrigel-coated flasks prepared with a working solution of 1X Ham's F-12 nutrient mix, without supplementation (Invitrogen, cat. 11765054), 100 U/mL penicillin-streptomycin (Invitrogen, cat. 15140122), and 2.5% Matrigel (Corning Inc., cat. 354248) for the first three passages. The 857933-349-R-J2-PDC line was cultured in 6C/Colon 1B media, which includes advanced DMEM/F-12 (Thermo Fisher Scientific, cat. 12634028), 10 mM HEPES (Thermo Fisher Scientific, cat. 15630080), 1X GlutaMAX supplement (Thermo Fisher Scientific, cat. 35050061), 0.1 mg/mL primocin (InvivoGen, cat. ant-pm-2), 10% defined fetal bovine serum, heat inactivated (HyClone Laboratories Inc., cat. SH30070.03HI), 50% L-WRN conditioned media (ATCC, cat. CRL-3276), 1.25 mM N-Acetyl-L-cysteine (Sigma-Aldrich, cat. A9165), 10 mM nicotinamide (Sigma-Aldrich, cat. N0636), 1X B-27 supplement (Thermo Fisher Scientific, cat. 17504044), 1X N-2 supplement (Thermo Fisher Scientific, cat. 17502048), 10 microM Y-27632 dihydrochloride (Tocris Bioscience, cat. 1254), and 50 ng/mL human EGF recombinant protein (Thermo Fisher Scientific, cat. PHG0311). The 485176-168-R4-J1-PDC line was cultured in Panc media, which includes all 6C/Colon 1B media components plus 100 ng/mL human FGF-10 (Thermo Fisher Scientific, cat. 100-26), 500 nM SB-431542 (Selleckchem, cat. S1067), and gastrin (Tocris, cat. 3006).
[…]

[1] = second compound 0.0316 µM, first compound 0.000999 µM
[2] = second compound 0.0316 µM, first compound 0.00316 µM
[3] = second compound 0.0316 µM, first compound 0.00999 µM
[4] = second compound 0.0316 µM, first compound 0.0316 µM
[5] = second compound 0.0316 µM, first compound 0.0999 µM
[6] = second compound 0.0316 µM, first compound 0.316 µM
[7] = second compound 0.1 µM, first compound 0.000999 µM
[8] = second compound 0.1 µM, first compound 0.00316 µM
[9] = second compound 0.1 µM, first compound 0.00999 µM
[10] = second compound 0.1 µM, first compound 0.0316 µM
[11] = second compound 0.1 µM, first compound 0.0999 µM
[12] = second compound 0.1 µM, first compound 0.316 µM
[13] = second compound 0.316 µM, first compound 0.000999 µM
[14] = second compound 0.316 µM, first compound 0.00316 µM
[15] = second compound 0.316 µM, first compound 0.00999 µM
[16] = second compound 0.316 µM, first compound 0.0316 µM
[17] = second compound 0.316 µM, first compound 0.0999 µM
[18] = second compound 0.316 µM, first compound 0.316 µM
[19] = second compound 1 µM, first compound 0.000999 µM
[20] = second compound 1 µM, first compound 0.00316 µM
[21] = second compound 1 µM, first compound 0.00999 µM
[22] = second compound 1 µM, first compound 0.0316 µM
[23] = second compound 1 µM, first compound 0.0999 µM
[24] = second compound 1 µM, first compound 0.316 µM
[25] = second compound 3.16 µM, first compound 0.000999 µM
[26] = second compound 3.16 µM, first compound 0.00316 µM
[27] = second compound 3.16 µM, first compound 0.00999 µM
[28] = second compound 3.16 µM, first compound 0.0316 µM
[29] = second compound 3.16 µM, first compound 0.0999 µM
[30] = second compound 3.16 µM, first compound 0.316 µM
[31] = second compound 10 µM, first compound 0.000999 µM
[32] = second compound 10 µM, first compound 0.00316 µM
[33] = second compound 10 µM, first compound 0.00999 µM
[34] = second compound 10 µM, first compound 0.0316 µM
[35] = second compound 10 µM, first compound 0.0999 µM
[36] = second compound 10 µM, first compound 0.316 µM

**Q.** How did the pIC50 (second compound 0.0316 µM) turn out when `CC[C@@]1(O)C(=O)OCc2c1cc1n(c2=O)Cc2cc3c(CN(C)C)c(O)ccc3nc2-1` + Cc1[nH]c2ccc(F)cc2c1-c1nc2c3cccnc3c3ncccc3c2[nH]1 was run?
**A.** The pIC50 was 7.58.

**Q.** What about the pIC50 (second compound 0.1 µM) of the same compound?
**A.** Its pIC50 is 7.64.

**Q.** What about the pIC50 (second compound 0.316 µM) of the same compound?
**A.** Its pIC50 is 8.04.

**Q.** What about the pIC50 (second compound 1 µM) of the same compound?
**A.** The pIC50 was over 9.00.

**Q.** And the pIC50 (second compound 3.16 µM)?
**A.** The pIC50 was over 9.00.

**Q.** And the pIC50 (second compound 10 µM)?
**A.** Its pIC50 is over 9.00.

**Q.** What about the viability, T/C [1] of the same compound?
**A.** Its viability, T/C is 99.8%.

**Q.** And the viability, T/C [2]?
**A.** The viability, T/C was 73.2%.

**Q.** What about the viability, T/C [3] of the same compound?
**A.** The viability, T/C was 92.3%.

**Q.** What about the viability, T/C [4] of the same compound?
**A.** The viability, T/C was 42.7%.

**Q.** And the viability, T/C [5]?
**A.** The viability, T/C was 10.9%.

**Q.** What about the viability, T/C [6] of the same compound?
**A.** The viability, T/C was 10.8%.

**Q.** What about the viability, T/C [7] of the same compound?
**A.** Its viability, T/C is 96.9%.

**Q.** What about the viability, T/C [8] of the same compound?
**A.** Its viability, T/C is 77.7%.

**Q.** And the viability, T/C [9]?
**A.** The viability, T/C was 94.9%.

**Q.** And the viability, T/C [10]?
**A.** The viability, T/C was 35%.

**Q.** And the viability, T/C [11]?
**A.** Its viability, T/C is 10.7%.

**Q.** What about the viability, T/C [12] of the same compound?
**A.** The viability, T/C was 11.1%.

**Q.** What about the viability, T/C [13] of the same compound?
**A.** The viability, T/C was 93.1%.

**Q.** What about the viability, T/C [14] of the same compound?
**A.** The viability, T/C was 58.5%.

**Q.** What about the viability, T/C [15] of the same compound?
**A.** The viability, T/C was 56.9%.

**Q.** And the viability, T/C [16]?
**A.** The viability, T/C was 34.6%.

**Q.** And the viability, T/C [17]?
**A.** Its viability, T/C is 9.45%.

**Q.** And the viability, T/C [18]?
**A.** Its viability, T/C is 10.2%.

**Q.** And the viability, T/C [19]?
**A.** The viability, T/C was 4.53%.

**Q.** What about the viability, T/C [20] of the same compound?
**A.** Its viability, T/C is 5.2%.

**Q.** And the viability, T/C [21]?
**A.** The viability, T/C was 3.92%.

**Q.** What about the viability, T/C [22] of the same compound?
**A.** Its viability, T/C is 4.65%.

**Q.** And the viability, T/C [23]?
**A.** The viability, T/C was 5.01%.

**Q.** What about the viability, T/C [24] of the same compound?
**A.** The viability, T/C was 4.15%.

**Q.** What about the viability, T/C [25] of the same compound?
**A.** Its viability, T/C is 4.32%.

**Q.** What about the viability, T/C [26] of the same compound?
**A.** The viability, T/C was 4.59%.

**Q.** And the viability, T/C [27]?
**A.** The viability, T/C was 4.67%.

**Q.** And the viability, T/C [28]?
**A.** Its viability, T/C is 4.52%.

**Q.** What about the viability, T/C [29] of the same compound?
**A.** The viability, T/C was 4.31%.

**Q.** And the viability, T/C [30]?
**A.** The viability, T/C was 2.77%.

**Q.** And the viability, T/C [31]?
**A.** Its viability, T/C is 4.73%.

**Q.** And the viability, T/C [32]?
**A.** Its viability, T/C is 3.46%.

**Q.** And the viability, T/C [33]?
**A.** The viability, T/C was 4.25%.

**Q.** What about the viability, T/C [34] of the same compound?
**A.** Its viability, T/C is 4.75%.

**Q.** And the viability, T/C [35]?
**A.** Its viability, T/C is 4.66%.

**Q.** And the viability, T/C [36]?
**A.** The viability, T/C was 3.29%.

**Q.** Which results are given for `CCc1c2c(nc3ccc(O)cc13)-c1cc3c(c(=O)n1C2)COC(=O)[C@]3(O)CC` + Cc1[nH]c2ccc(F)cc2c1-c1nc2c3cccnc3c3ncccc3c2[nH]1?
**A.** pIC50 (second compound 0.0316 µM): 8.91; pIC50 (second compound 0.1 µM): 8.91; pIC50 (second compound 0.316 µM): > 9.00; pIC50 (second compound 1 µM): > 9.00; pIC50 (second compound 3.16 µM): > 9.00; pIC50 (second compound 10 µM): > 9.00; viability, T/C [1]: 57.7%; viability, T/C [2]: 15.4%; viability, T/C [3]: 10.2%; viability, T/C [4]: 6.35%; viability, T/C [5]: 4.8%; viability, T/C [6]: 1.3%; viability, T/C [7]: 58%; viability, T/C [8]: 12.6%; viability, T/C [9]: 10.4%; viability, T/C [10]: 6.87%; viability, T/C [11]: 4.33%; viability, T/C [12]: 1.74%; viability, T/C [13]: 36%; viability, T/C [14]: 18.3%; viability, T/C [15]: 10.3%; viability, T/C [16]: 7.63%; viability, T/C [17]: 4.58%; viability, T/C [18]: 1.81%; viability, T/C [19]: 4.92%; viability, T/C [20]: 3.7%; viability, T/C [21]: 3.69%; viability, T/C [22]: 2.84%; viability, T/C [23]: 2.04%; viability, T/C [24]: 0.8%; viability, T/C [25]: 4.87%; viability, T/C [26]: 4.58%; viability, T/C [27]: 3.82%; viability, T/C [28]: 3.33%; viability, T/C [29]: 1.4%; viability, T/C [30]: 0.62%; viability, T/C [31]: 4.11%; viability, T/C [32]: 3.78%; viability, T/C [33]: 4.08%; viability, T/C [34]: 3.15%; viability, T/C [35]: 1.92%; viability, T/C [36]: 0.73%
